Source: ChEMBL document CHEMBL1944632, “Synthesis, anti-HBV activity and renal cell toxicity evaluation of mixed phosphonate prodrugs of adefovir” (Eur J Med Chem, 2012)

Key:
Hepatitis B virus [1] = experiment: Antiviral activity against Hepatitis B virus infected in human HepG2(2.2.15) cells assessed as inhibition of viral replication incubated for 2 days followed by wash out measured after 10 days by RT-PCR analysis; assay type: functional, organism-based
[2] = Cytotoxicity against human HepG2(2.2.15) cells infected with HBV DNA; assay type: cell-based
[3] = Cytotoxicity against human HK2 cells by MTT assay; assay type: cell-based, HK-2
[4] = Nephrotoxicity in human HK2 cells assessed as LDH release at 1 uM measured after 24 hrs; assay type: toxicity, cell-based; details: hk-2, 24 h
[5] = Nephrotoxicity in human HK2 cells assessed as LDH release at 10 uM measured after 24 hrs; assay type: toxicity, cell-based; details: hk-2, 24 h
[6] = Nephrotoxicity in human HK2 cells assessed as LDH release at 100 uM measured after 24 hrs; assay type: toxicity, cell-based; details: hk-2, 24 h
[7] = Chemical stability of the compound assessed as drug decomposition at 1 mM in phosphate buffer at pH 2 after 24 hrs by HPLC analysis; assay type: physicochemical; details: read-out: Drug degradation
[8] = Chemical stability of the compound assessed as drug decomposition at 1 mM in phosphate buffer at pH 7.4 after 24 hrs by HPLC analysis; assay type: physicochemical; details: read-out: Drug degradation
[9] = Selectivity index, ratio of CC50 for HepG2(2.2.15) infected with HBV DNA to EC50 for Hepatitis B virus infected in human HepG2(2.2.15) cells
[10] = Half life in rat plasma at 0.2 mg after 24 hrs by HPLC analysis; assay type: ADME
Hepatitis B virus [11] = experiment: Ratio of adefovir dipivoxil to compound EC50 for Hepatitis B virus infected in human HepG2(2.2.15) cells assessed as inhibition of viral replication incubated for 2 days followed by wash out measured after 10 days by RT-PCR analysis; assay type: functional
[12] = Ratio of adefovir dipivoxil SI to compound SI for ratio of CC50 for HepG2(2.2.15) infected with HBV DNA to EC50 for Hepatitis B virus infected in human HepG2(2.2.15) cells; assay type: functional

Which EC50 (Hepatitis B virus [1]) does the source give for CC[C@H](C)[C@H](N)C(=O)OCCOP(=O)(COCCn1cnc2c(N)ncnc21)OCCCOC(=O)C(C)c1cccc(C(=O)c2ccccc2)c1 (some centres not stated) here?
The EC50 was 0.73 µM.

And the CC50 [2]?
The CC50 was 644 µM.

And the CC50 [3]?
Its CC50 is 768 µM.

What about the Activity [4] of the same compound?
The Activity was 37.85%.

What about the Activity [5] of the same compound?
Its Activity is 36.92%.

And the Activity [6]?
The Activity was 43.51%.

And the degraded at 24 h, 1000 µM [7]?
Its degraded at 24 h, 1000 µM is 14.9%.

What about the degraded at 24 h, 1000 µM [8] of the same compound?
The degraded at 24 h, 1000 µM was 12.5%.

And the “Ratio CC50/EC50” value [9]?
The value was 881.92.

Which EC50 (Hepatitis B virus [1]) does the source give for CC(C(=O)OCCCOP(=O)(COCCn1cnc2c(N)ncnc21)OCCCSC(=O)[C@@H](N)C(C)C)c1cccc(C(=O)c2ccccc2)c1 (some centres not stated) here?
The EC50 was 26.9 µM.

What about the CC50 [2] of the same compound?
The CC50 was 1050 µM.

What about the “Ratio CC50/EC50” value [9] of the same compound?
Its value is 39.01.

Which results are given for CC[C@H](C)[C@H](N)C(=O)SCCCOP(=O)(COCCn1cnc2c(N)ncnc21)OCCCOC(=O)C(C)c1cccc(C(=O)c2ccccc2)c1 (some centres not stated)?
EC50 (Hepatitis B virus [1]): 44.9 µM; CC50 [2]: 1000 µM; Ratio CC50/EC50 [9]: 22.29

With CC(C(=O)OCCCOP(=O)(COCCn1cnc2c(N)ncnc21)OCCCSC(=O)[C@@H](N)Cc1ccccc1)c1cccc(C(=O)c2ccccc2)c1 (some centres not stated) as the compound, how does the EC50 (Hepatitis B virus [1]) read?
Its EC50 is 29.8 µM.

And the CC50 [2]?
Its CC50 is 1000 µM.

And the “Ratio CC50/EC50” value [9]?
Its value is 33.47.

Which EC50 (Hepatitis B virus [1]) does the source give for CC(C)Cc1ccc(C(C)C(=O)OCCCOP(=O)(COCCn2cnc3c(N)ncnc32)OCCOC(=O)[C@@H](N)C(C)C)cc1 (some centres not stated) here?
The EC50 was 8.8 µM.

What about the CC50 [2] of the same compound?
The CC50 was 577 µM.

What about the CC50 [3] of the same compound?
The CC50 was over 1000 µM.

What about the Activity [4] of the same compound?
The Activity was 35.41%.

And the Activity [5]?
The Activity was 36.25%.

What about the Activity [6] of the same compound?
The Activity was 36.87%.

And the degraded at 24 h, 1000 µM [7]?
Its degraded at 24 h, 1000 µM is 9.6%.

And the degraded at 24 h, 1000 µM [8]?
Its degraded at 24 h, 1000 µM is 7.8%.

What about the half-life [10] of the same compound?
Its half-life is 90 min.

What about the “Ratio CC50/EC50” value [9] of the same compound?
The value was 65.56.

For CC[C@H](C)[C@H](N)C(=O)OCCOP(=O)(COCCn1cnc2c(N)ncnc21)OCCCOC(=O)C(C)c1ccc(CC(C)C)cc1 (some centres not stated), which EC50 (Hepatitis B virus [1]) is on record?
The EC50 was 12.5 µM.

What about the CC50 [2] of the same compound?
The CC50 was 488 µM.

And the CC50 [3]?
The CC50 was over 1000 µM.

And the Activity [4]?
Its Activity is 36.25%.

What about the Activity [5] of the same compound?
The Activity was 36.67%.

And the Activity [6]?
The Activity was 40.6%.

What about the degraded at 24 h, 1000 µM [7] of the same compound?
Its degraded at 24 h, 1000 µM is 12.7%.

And the degraded at 24 h, 1000 µM [8]?
The degraded at 24 h, 1000 µM was 9.1%.

And the half-life [10]?
Its half-life is 45 min.

And the “Ratio CC50/EC50” value [9]?
Its value is 39.11.

With CC(C)Cc1ccc(C(C)C(=O)OCCCOP(=O)(COCCn2cnc3c(N)ncnc32)OCCCSC(=O)[C@@H](N)C(C)C)cc1 (some centres not stated) as the compound, how does the EC50 (Hepatitis B virus [1]) read?
The EC50 was 22.7 µM.

What about the CC50 [2] of the same compound?
The CC50 was 122 µM.

What about the “Ratio CC50/EC50” value [9] of the same compound?
Its value is 5.37.

For CC[C@H](C)[C@H](N)C(=O)SCCCOP(=O)(COCCn1cnc2c(N)ncnc21)OCCCOC(=O)C(C)c1ccc(CC(C)C)cc1 (some centres not stated), which EC50 (Hepatitis B virus [1]) is on record?
Its EC50 is 50 µM.

What about the CC50 [2] of the same compound?
The CC50 was 157 µM.

And the “Ratio CC50/EC50” value [9]?
The value was 3.14.

What does the source list for CC[C@H](C)[C@H](N)C(=O)OCCOP(=O)(COCCn1cnc2c(N)ncnc21)OCCCOC(=O)C(C)c1ccc(-c2ccccc2)c(F)c1 (some centres not stated)?
EC50 (Hepatitis B virus [1]): 2.26 µM; CC50 [2]: 677 µM; CC50 [3]: > 1000 µM; Activity [4]: 35.89%; Activity [5]: 36.95%; Activity [6]: 40.52%; degraded at 24 h, 1000 µM [7]: 15.3%; degraded at 24 h, 1000 µM [8]: 12.6%; half-life [10]: 210 min; Ratio CC50/EC50 [9]: 299.69

For CC(C(=O)OCCCOP(=O)(COCCn1cnc2c(N)ncnc21)OCCOC(=O)[C@@H](N)Cc1ccccc1)c1ccc(-c2ccccc2)c(F)c1 (some centres not stated), which EC50 (Hepatitis B virus [1]) is on record?
The EC50 was 3.34 µM.

What about the CC50 [2] of the same compound?
The CC50 was 568 µM.

And the CC50 [3]?
Its CC50 is 906 µM.

What about the Activity [4] of the same compound?
Its Activity is 34.68%.

What about the Activity [5] of the same compound?
Its Activity is 35.95%.

And the Activity [6]?
Its Activity is 42.71%.

And the degraded at 24 h, 1000 µM [7]?
Its degraded at 24 h, 1000 µM is 14.7%.

What about the degraded at 24 h, 1000 µM [8] of the same compound?
The degraded at 24 h, 1000 µM was 10.3%.

What about the half-life [10] of the same compound?
Its half-life is 123 min.

And the “Ratio CC50/EC50” value [9]?
The value was 170.21.

With CC[C@H](C)[C@H](N)C(=O)SCCCOP(=O)(COCCn1cnc2c(N)ncnc21)OCCCOC(=O)C(C)c1ccc(-c2ccccc2)c(F)c1 (some centres not stated) as the compound, how does the EC50 (Hepatitis B virus [1]) read?
The EC50 was 36.7 µM.

What about the CC50 [2] of the same compound?
The CC50 was 363 µM.

What about the “Ratio CC50/EC50” value [9] of the same compound?
The value was 9.88.

For CC(C(=O)OCCCOP(=O)(COCCn1cnc2c(N)ncnc21)OCCCSC(=O)[C@@H](N)Cc1ccccc1)c1ccc(-c2ccccc2)c(F)c1 (some centres not stated), which EC50 (Hepatitis B virus [1]) is on record?
Its EC50 is 48.9 µM.

What about the CC50 [2] of the same compound?
The CC50 was 202 µM.

What about the “Ratio CC50/EC50” value [9] of the same compound?
Its value is 4.12.

With CC(C(=O)OCCCOP(=O)(COCCn1cnc2c(N)ncnc21)OCCOC(=O)[C@@H](N)C(C)C)c1cccc(C(=O)c2ccccc2)c1 (some centres not stated) as the compound, how does the EC50 (Hepatitis B virus [1]) read?
The EC50 was 0.51 µM.

And the CC50 [2]?
The CC50 was 866 µM.

And the CC50 [3]?
The CC50 was 840 µM.

What about the Activity [4] of the same compound?
Its Activity is 37.63%.

What about the Activity [5] of the same compound?
Its Activity is 38.72%.

What about the Activity [6] of the same compound?
Its Activity is 44.9%.

And the degraded at 24 h, 1000 µM [7]?
The degraded at 24 h, 1000 µM was 11.2%.

And the degraded at 24 h, 1000 µM [8]?
Its degraded at 24 h, 1000 µM is 8.3%.

And the half-life [10]?
Its half-life is 165 min.

And the “Ratio CC50/EC50” value [9]?
Its value is 1697.64.

And the “Ratio EC50” value (Hepatitis B virus [11])?
Its value is 2.

What about the Ratio [12] of the same compound?
Its Ratio is 4.

What does the source list for CC(C)(C)C(=O)OCOP(=O)(COCCn1cnc2c(N)ncnc21)OCOC(=O)C(C)(C)C [ADEFOVIR DIPIVOXIL]?
EC50 (Hepatitis B virus [1]): 0.96 µM; CC50 [2]: 471 µM; CC50 [3]: 488 µM; Activity [4]: 42.32%; Activity [5]: 47.49%; Activity [6]: 50.02%; degraded at 24 h, 1000 µM [7]: 42.5%; degraded at 24 h, 1000 µM [8]: 39.1%; half-life [10]: 31.2 min; Ratio CC50/EC50 [9]: 490.73
